Experimental data published in patent publication US10280158B2, “Immune adjustment compound, use thereof and pharmaceutical composition comprising same” (SUZHOU CONNECT BIOPHARMACEUTICALS, LTD., priority 2013, dated 2019).

Legend:
[1] = In vivo pharmacokinetic experiment, intravenous administration; set-up: species or system Sprague Dawley rats
Method: In this Example, the pharmacokinetic properties of compounds 1, 2, 3, 4 and 5 were evaluated via. i.v. and p.o. dosing to Sprague Dawley rats.
Experimental animals used in this Example and hereinafter were male SD rats of 7-9 weeks old, with body weight ranging from 186 to 231 g, which were purchased from Beijing Vital River Laboratory Animal Technology Co., Ltd. The animals were quarantined by veterinarian for 5 days after purchase, then animals had passed quarantine inspection were selected to be tested under SPE conditions, wherein the tested animals are assigned into 3 rats per group as follows.
Intravenous administration group: 1.61 mg of each of compounds 1-5 was respectively prepared into a solution of 1 mg/mL by using 1.610 mL 10% HP-β-CD as a diluent. Each solution was vortexed 1-2 mins after mixed fully, and then was ultrasonically treated for 28-30 mins. The obtained solution was used as medicine administrated to intravenous administration group, and the administration was conducted with a dose of 1 mL/kg body weight of each rat.
For both oral administration group and intravenous administration group, blood samples were collected at 0.0833 h (5 min), 0.25 h (15 min), 0.5 h, 1 h, 2 h, 4 h, 8 h, and 24 h after administration. After isoflurane anesthesia 0.3 mL whole blood was collected from orbital venous plexus of the animals at each time point. The animals would be euthanized after all samples were collected.
The collected blood samples were placed in EP tubes containing heparin sodium (about 10 μl, 1000 IU/mL), which were then placed in trash ice immediately, and centrifuged at 4,000 rpm and a low temperature (4° C.) for 5 minutes. The plasma was isolated rapidly and then stored at −20° C. until analysis.
The concentration of each compound in blood was measured by LC-MS/MS-001 (Q-trap-3200) with osalmide as internal standard material, as follows. 24 μL blank plasma was added into 6 μL plasma sample (5 times of dilution), and then a solution of acetonitrile containing 150 μL internal standard material (osalmide in 100 μg/mL) was added in. The mixture was shaken for 5 minutes, and then centrifuged at 4,000 rpm for 5 minutes. 2 μL of the obtained sample was implanted into LC-MS/MS for analysis. As for undiluted plasma sample, 30 μL of it was added into a solution of acetonitrile containing 150 μL internal standard material (osalmide in 100 μg/mL). The mixture was shaken for 5 minutes, and then centrifuged at 4,000 rpm for 5 minutes. 2 μL of the obtained sample was implanted into LC-MS/MS for analysis.
As for data analysis, WinNolin (V6.2) non-compartment model (NCA) was used for calculating main metabolic pharmacokinetic parameters including t1/2, AUC(0−t), AUCinf, V, Cl, MRT, etc., and Microsoft Office EXCEL was used for calculating mean values, standard deviations and coefficients of variation.

[2] = system: Collagen Type II-Induced Arthritis; assay: Collagen type II-induced arthritis (rat CIA model); type: in vivo, Lewis rats; settings: oral, 1 mg/kg
Method: To perform the testing, Lewis rats were induced to develop the disease as follows. Rats were anesthetized with isoflurane and were injected intradermally with a total of 0.5 mL CII/CFA emulsion. The emulsion was injected at 3 sites, one site at the base of the tail (0.1 mL), and the other two sites (0.2 mL/site) on the back of the rat near to the base of the tail. An identical booster injection was given i.d. at 7 days after the primary immunization avoiding previous injection sites.
The positive control group was given TOFACITINIB orally on day 12 after sensitization. The severity of arthritis in four paws was scored 2 times per week starting on day 7 after sensitization. The criteria was as follows: score 0: No evidence of erythema and swelling; score 1: Erythema and mild swelling confined to the mid-foot (tarsals) or ankle joint; score 2: Erythema and mild swelling extending from the ankle to the mid-foot; score 3: Erythema and moderate swelling extending from the ankle to the metatarsal joints; score 4: Erythema and severe swelling encompass the ankle, foot, and digits. Joint swelling, measured by the volume of hind paws using Plethysmometer, was determined on Day 0, and then 2 times per week from Day 7 to Day 28. Destruction of the joint was determined by X-Ray examination on Day 28.

[3] = target: T1, human S1P1 (Homo sapiens, UniProt P21453); assay: Internalization effect experiment on S1P1 (CHO-S cells, Myc tag, flow cytometry); type: cell-based
T1 construct: expressed in transfected cells; host or cells: CHO-S cells
T1 sequence (P21453 whole entry): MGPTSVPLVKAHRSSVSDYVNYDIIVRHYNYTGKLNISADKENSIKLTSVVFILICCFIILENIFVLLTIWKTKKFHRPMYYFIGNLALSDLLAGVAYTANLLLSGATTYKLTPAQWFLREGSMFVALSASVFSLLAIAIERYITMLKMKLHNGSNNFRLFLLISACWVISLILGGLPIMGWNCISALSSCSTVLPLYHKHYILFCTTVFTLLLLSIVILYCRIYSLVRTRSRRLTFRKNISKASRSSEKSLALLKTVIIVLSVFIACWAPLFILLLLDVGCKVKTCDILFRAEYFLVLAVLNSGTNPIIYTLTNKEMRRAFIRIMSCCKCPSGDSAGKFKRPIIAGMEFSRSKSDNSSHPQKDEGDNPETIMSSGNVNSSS
From the text: It is well known that S1P1 small molecule agonists can prevent lymphocytes from entering the peripheral circulation by inducing internalization of S1P1 on cell surface. In order to determine whether the compounds provided by present invention have an activity of inducing S1P1 internalization, CHO—S cells expressing human S1P1, to replace the lymphocytes, are used as detection system of S1P1 internalization. For ease of monitoring the S1P1 on cell surface, a Myc tag is fused to N-terminal of S1P1, thus the expression of S1P1 is analyzed by flow cytometry after incubating the cells with fluorescent-labeled antibody against the Myc tag.
A 10 mM stock solution was prepared by dissolving compound 2 provided by the present invention in dimethyl sulfoxide (DMSO), and then the stock solution was diluted to different concentrations as desired with DMEM. CHO—S cells bearing human S1P1 with Myc tag were harvested and then adjusted to a density of one million cells per mL by Dulbecco's modified Eagle's medium (DMEM). Different concentrations of Compound 2 diluted in an equal volume were mixed and the cell suspension and then incubated at 37° C. for 1 hour. After incubation, the mixture was centrifuged at 800 RPM for 5 minutes to obtain the cells. The cells were resuspended in FACS buffer (PBS containing 1% BSA), and Myc antibody labelled with fluorescein isothiocyanate (FITC) (from Californian Miltenyi Biotec GmbH, USA) was added in and incubated for 1 hour on ice. The cells were washed, resuspended in pre-cooled FACS buffer and analysed by FACS Calibur flow cytometry.

[4] = intravenous administration, rats, in words
[5] = male, Sprague-Dawley, rat, plasma, intravenous administration (1 mg/kg), SD rats

Q: With `CC(C)Cc1ccc(-c2nc(-c3ccc(CN4CC(C(=O)O)C4)c(F)c3)no2)cc1` [Compound 2, 1-{2-fluoro-4-[5-(4-isobutylphenyl)-1,2,4-oxadiazol-3-yl]-benzyl}-3-azetidine carboxylic acid] as the compound, how does the “mean residence time (MRT) compared with compound 1” value [1, 4] read?
A: reduced significantly

Q: And the “terminal half-life compared with compound 1” value [1, 4]?
A: reduced significantly

Q: What about the AUC(0-inf) [1, 5] of the same compound?
A: 2.01 ± 0.146 µg·h/mL

Q: What about the MRT inf [1, 5] of the same compound?
A: 6.28 ± 0.44 h

Q: What about the clearance [1, 5] of the same compound?
A: 0.499 L/h/kg

Q: What about the half-life ([1]; male, Sprague-Dawley, rat, plasma, intravenous administration (1 mg/kg), SD rats, read-out: T½ (converted)) of the same compound?
A: 5.47 ± 0.42 h

Q: And the Vd ([1]; male, Sprague-Dawley, rat, plasma, intravenous administration (1 mg/kg), SD rats, read-out: Vss)?
A: 3.12 ± 0.101 L/kg

Q: And the “development of arthritis based on joint swelling” value ([2]; Lewis rats, FIG. 5)?
A: effective in inhibiting the development of arthritis

Q: And the “development of arthritis based on destruction of joint structure” value ([2]; X-Ray on Day 28, Lewis rats, FIG. 6)?
A: effective in inhibiting the development of arthritis

Q: What about the EC50 ([3]; CHO-S cells expressing human S1P1, 1 hour at 37° C., read-out: Receptor Internalization (EC50) S1P1) of the same compound?
A: 9.83 nM

Q: What about the “activity of inducing S1P1 internalization” value ([3]; CHO-S cells expressing human S1P1, in words) of the same compound?
A: dose-dependent manner
